According to patent publication US9469650B2, “Melampomagnolide B derivatives” (BOARD OF TRUSTEES OF THE UNIVERSITY OF ARKANSAS, priority 2013, dated 2016):

What was measured:
SW-620 = experiment: panel of 60 human tumor cell lines, growth inhibition (Colon Cancer); conditions: Homo sapiens; for GI50: SW-620, SW-620
UACC-257 = experiment: panel of 60 human tumor cell lines, growth inhibition (Melanoma)
NCI-H322M = experiment: panel of 60 human tumor cell lines, growth inhibition (Non-Small Cell Lung Cancer); conditions: Homo sapiens
OVCAR-5 = experiment: panel of 60 human tumor cell lines, growth inhibition (Ovarian Cancer); conditions: Homo sapiens
NCI-H522 = experiment: panel of 60 human tumor cell lines, growth inhibition (Non-Small Cell Lung Cancer); conditions: Homo sapiens
SNB-75 = experiment: panel of 60 human tumor cell lines, growth inhibition (CNS Cancer); conditions: Homo sapiens
HS 578T = experiment: panel of 60 human tumor cell lines, growth inhibition (Breast Cancer); conditions: Homo sapiens, Hs-578T
HCT-116 = experiment: panel of 60 human tumor cell lines, growth inhibition (Colon Cancer); conditions: Homo sapiens; for GI50: HCT-116, HCT-116
HT29 = experiment: as above; conditions: for Percent Growth: HT29
BT-549 = experiment: panel of 60 human tumor cell lines, growth inhibition (Breast Cancer); conditions: Homo sapiens
TK-10 = experiment: panel of 60 human tumor cell lines, growth inhibition (Renal Cancer); conditions: Homo sapiens; for GI50: TK-10, TK-10
SF-295 = experiment: panel of 60 human tumor cell lines, growth inhibition (CNS Cancer); conditions: Homo sapiens
HCT-15 = experiment: panel of 60 human tumor cell lines, growth inhibition (Colon Cancer); conditions: Homo sapiens
SF-268 = experiment: panel of 60 human tumor cell lines, growth inhibition (CNS Cancer); conditions: Homo sapiens
A549/ATCC = experiment: panel of 60 human tumor cell lines, growth inhibition (Non-Small Cell Lung Cancer); conditions: Homo sapiens
T-47D = experiment: panel of 60 human tumor cell lines, growth inhibition (Breast Cancer); conditions: Homo sapiens, T47D

C=C1C(=O)O[C@H]2[C@H]1CC/C(COC(=O)Nc1n[nH]c(SC)n1)=C\CC[C@@]1(C)O[C@@H]21 [JVM 64, ((1aR,7aS,10aS,10bS,E)-1a-methyl-8-methylene-9-oxo-1a,2,3,6,7,7a,8,9,10a,10b-decahydrooxireno[2′,3′:9,10]cyclodeca[1,2-b]furan-5-yl)methyl-(5-(methylthio)-1H-1,2,4-triazol-3-yl)carbamate]
GI50 (SW-620; 5-dose assay): 1.12 µM
GI50 (SW-620; NCI five dose): 1.12 µM
CC50 (SW-620; SW-620, read-out: LC50): 8.49 µM
IC (TGI) (SW-620; SW-620, read-out: TGI): 3.09 µM
GI50 (UACC-257; Homo sapiens, UACC-257): 1.66 µM
CC50 (UACC-257; Homo sapiens, UACC-257, read-out: LC50): 31.9 µM
Percent Growth (UACC-257; UACC-257, Log10 Concentration −4.0): −80%
Percent Growth (UACC-257; UACC-257, Log10 Concentration −5.0): −20%
Percent Growth (UACC-257; UACC-257, Log10 Concentration −6.0): 70%
Percent Growth (UACC-257; UACC-257, Log10 Concentration −7.0): 93%
Percent Growth (UACC-257; UACC-257, Log10 Concentration −8.0): 102%
TGI (UACC-257; UACC-257, NCI five dose): 6.02E−6
GI50 (NCI-H322M): 14.2 µM
CC50 (NCI-H322M; read-out: LC50): 60.3 µM
IC (TGI) (NCI-H322M; read-out: TGI): 29.2 µM
GI50 (OVCAR-5; OVCAR-5): 2.18 µM
CC50 (OVCAR-5; OVCAR-5, read-out: LC50): 24 µM
IC (TGI) (OVCAR-5; OVCAR-5, read-out: TGI): 5.92 µM
GI50 (NCI-H522; NCI-H522): 1.26 µM
CC50 (NCI-H522; NCI-H522, read-out: LC50): 7.87 µM
IC (TGI) (NCI-H522; NCI-H522, read-out: TGI): 3.17 µM
GI50 (SNB-75; SNB-75): 1.71 µM
CC50 (SNB-75; SNB-75, read-out: LC50): 33.4 µM
IC (TGI) (SNB-75; SNB-75, read-out: TGI): 10.1 µM
GI50 (HS 578T): 2.44 µM
CC50 (HS 578T; read-out: LC50): > 100 µM
IC (TGI) (HS 578T; read-out: TGI): 8.75 µM
GI50 (HCT-116; 5-dose assay): 1.13 µM
GI50 (HCT-116; NCI five dose): 1.13 µM
CC50 (HCT-116; HCT-116, read-out: LC50): 5.86 µM
IC (TGI) (HCT-116; HCT-116, read-out: TGI): 2.6 µM
Percent Growth (HT29; Log10 Concentration −4.0): −79%
Percent Growth (HT29; Log10 Concentration −5.0): −11%
Percent Growth (HT29; Log10 Concentration −6.0): 92%
Percent Growth (HT29; Log10 Concentration −7.0): 101%
Percent Growth (HT29; Log10 Concentration −8.0): 102%
GI50 (HT29; Homo sapiens, HT-29): 2.55 µM
CC50 (HT29; Homo sapiens, HT-29, read-out: LC50): 37.4 µM
IC (TGI) (HT29; Homo sapiens, HT-29, read-out: TGI): 7.77 µM
GI50 (BT-549; BT-549): 1.47 µM
CC50 (BT-549; BT-549, read-out: LC50): 6.24 µM
IC (TGI) (BT-549; BT-549, read-out: TGI): 3.83 µM
GI50 (TK-10; 5-dose assay): 2.51 µM
GI50 (TK-10; NCI five dose): 2.51 µM
CC50 (TK-10; TK-10, read-out: LC50): 27.4 µM
IC (TGI) (TK-10; TK-10, read-out: TGI): 7.16 µM
GI50 (SF-295; SF-295): 14.1 µM
CC50 (SF-295; SF-295, read-out: LC50): 64.1 µM
IC (TGI) (SF-295; SF-295, read-out: TGI): 30.1 µM
GI50 (HCT-15; HCT-15): 2.4 µM
CC50 (HCT-15; HCT-15, read-out: LC50): 38 µM
IC (TGI) (HCT-15; HCT-15, read-out: TGI): 9.05 µM
GI50 (SF-268; SF-268): 3.73 µM
CC50 (SF-268; SF-268, read-out: LC50): 52.6 µM
IC (TGI) (SF-268; SF-268, read-out: TGI): 14.7 µM
GI50 (A549/ATCC; A549): 4.19 µM
CC50 (A549/ATCC; A549, read-out: LC50): 83.5 µM
IC (TGI) (A549/ATCC; A549, read-out: TGI): 19.9 µM
GI50 (T-47D): 2.23 µM
CC50 (T-47D; read-out: LC50): 70.9 µM
IC (TGI) (T-47D; read-out: TGI): 5.31 µM
